Measurements: ChEMBL document CHEMBL4373682, “Synergistic effect of tolfenamic acid and glycyrrhizic acid on TPA-induced skin inflammation in mice” (Medchemcomm, 2019)

Legend:
Mus musculus [1] = assay: Antiinflammatory activity against TPA-induced ear edema in BALB/c mouse assessed as effect on weight of ear punches at 100 mg/kg, po administered 6 mins prior to TPA challenge and treated twice in 4 hrs and measured after 6 hrs post administration (reference value: 4.5 +/- 0.18 mg); assay type: functional
Mus musculus [2] = assay: Antiinflammatory activity against TPA-induced ear edema in BALB/c mouse assessed as inhibition of ear edema at 50 mg/kg, po administered 6 mins prior to TPA challenge and treated twice in 4 hrs and measured after 6 hrs post administration relative to control; assay type: functional
Mus musculus [3] = assay: Antiinflammatory activity against TPA-induced ear edema in BALB/c mouse assessed as inhibition of ear edema at 100 mg/kg, po administered 6 mins prior to TPA challenge and treated twice in 4 hrs and measured after 6 hrs post administration relative to control; assay type: functional
[4] = Tmax in rat at 10 to 480 mg/kg, po; assay type: ADME, organism-based; settings: in vivo

| Tmax [4] [h] | Compound | Activity (Mus musculus [1]) [mg] | inhibition in vivo at 50 mg/kg (Mus musculus [2]) [%] | inhibition in vivo at 100 mg/kg (Mus musculus [3]) [%] |
| --- | --- | --- | --- | --- |
|  | CC(=O)Oc1ccccc1C(=O)O [ASPIRIN] | 11.2 |  |  |
|  | CCc1cccc2c3c([nH]c12)C(CC)(CC(=O)O)OCC3 (stereo not given) [ETODOLAC] | 11.1 |  |  |
|  | CC1(C)[C@@H](O[C@H]2O[C@H](C(=O)O)[C@@H](O)[C@H](O)[C@H]2O[C@@H]2O[C@H](C(=O)O)[C@@H](O)[C@H](O)[C@H]2O)CC[C@]2(C)[C@H]3C(=O)C=C4[C@@H]5C[C@@](C)(C(=O)O)CC[C@]5(C)CC[C@@]4(C)[C@]3(C)CC[C@@H]12 [GLYCYRRHIZIN] | 12.7 | -5.41 | -10.8 |
|  | CC(C)Cc1ccc(C(C)C(=O)O)cc1 (stereo not given) [IBUPROFEN] | 8.8 |  |  |
|  | COc1ccc2cc([C@H](C)C(=O)O)ccc2c1 [NAPROXEN] | 11.5 |  |  |
| 2 to 3 | Cc1c(Cl)cccc1Nc1ccccc1C(=O)O [TOLFENAMIC ACID] |  | 35.1 | 51.4 |
